13 compounds from patent US20110082130A1 (LIGAND PHARMACEUTICALS, INC., priority 2006, published 2011) can be followed below.

The target in the first assay is T1, chimeric human H3 receptor (Homo sapiens, UniProt Q9Y5N1).
T1 construct: made in house; host or cells: Sf9 insect cells (baculovirus); P2 membrane preparation
T1 sequence (Q9Y5N1 with tags, fused parts or gaps): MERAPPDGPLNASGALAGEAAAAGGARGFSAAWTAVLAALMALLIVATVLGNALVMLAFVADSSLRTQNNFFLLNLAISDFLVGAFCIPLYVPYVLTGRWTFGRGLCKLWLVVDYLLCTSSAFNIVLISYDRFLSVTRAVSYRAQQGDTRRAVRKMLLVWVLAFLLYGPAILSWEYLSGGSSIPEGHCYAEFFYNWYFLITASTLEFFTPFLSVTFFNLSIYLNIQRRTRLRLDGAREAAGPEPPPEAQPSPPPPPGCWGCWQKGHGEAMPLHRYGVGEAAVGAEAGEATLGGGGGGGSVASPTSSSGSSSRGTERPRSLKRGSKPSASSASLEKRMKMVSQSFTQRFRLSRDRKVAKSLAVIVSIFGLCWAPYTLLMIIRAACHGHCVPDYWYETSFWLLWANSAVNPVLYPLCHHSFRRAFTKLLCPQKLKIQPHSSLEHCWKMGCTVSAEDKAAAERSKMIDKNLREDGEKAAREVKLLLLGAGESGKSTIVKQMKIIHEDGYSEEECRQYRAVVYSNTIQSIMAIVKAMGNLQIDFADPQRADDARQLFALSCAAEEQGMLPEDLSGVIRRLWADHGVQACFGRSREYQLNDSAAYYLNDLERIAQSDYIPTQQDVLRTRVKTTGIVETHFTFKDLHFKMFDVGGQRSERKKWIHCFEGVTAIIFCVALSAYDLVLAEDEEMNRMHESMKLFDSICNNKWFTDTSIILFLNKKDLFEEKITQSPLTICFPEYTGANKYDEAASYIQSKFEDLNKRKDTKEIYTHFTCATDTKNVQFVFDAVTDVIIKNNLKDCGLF
The assay can be described thus: Chimeric human H3 receptor GTP binding assay (agonist-stimulated GTP-gamma35S binding, Example 7). The following applies: Table II "Ki", symbol *; assay of Example 7. The format is biochemical. The essentials:
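Sf9 membranes co-expressing chimeric human H3 receptor and heterotrimeric G-protein, 35 μg/tube, in pH 7.4 Tris buffer with 10 μM GDP. Test compounds (10^−10–10^−6 M) competed against 1 μM histamine, […] GTP-gamma35S, 60 min at room temperature. Filter-bound radioactivity counted; IC50 converted to Ki by Cheng-Prusoff. Agonism/inverse agonism tested without histamine (EC50).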
Background: GTPγS resists hydrolysis and so accumulates on activated G proteins.
Turning to `COc1cc(-c2ccc3c(c2)CCN(CC(=O)N2CCN(C4CCC4)CC2)C3)cc(OC)c1OC` [Compound 516, 2-[2-(4-cyclobutylpiperazin-1-yl)-2-oxoethyl]-6-(3,4,5-trimethoxyphenyl)-1,2,3,4-tetrahydroisoquinoline], the Ki is under 1000 nM. With `Cc1ccnc(-c2ccc3c(c2)CCN(CC(=O)N2CCN(C4CCC4)CC2)C3)c1` [Compound 630, 2-[2-(4-cyclobutylpiperazin-1-yl)-2-oxoethyl]-6-(4-methylpyridin-2-yl)-1,2,3,4-tetrahydroisoquinoline], the Ki was under 1000 nM.

Staying with this assay, now noted: Table II; "*" = Ki in assay of Example 7 less than 1 micromolar.
Regarding `O=C(CN1CCc2cc(N3CCCCC3=O)ccc2C1)N1CCN(C2CCC2)CC1` [Compound 211, 1-{2-[2-(4-cyclobutylpiperazin-1-yl)-2-oxoethyl]-1,2,3,4-tetrahydroisoquinolin-6-yl}piperidin-2-one], the inhibition constant (Ki) was under 1000 nM. The same measure, in the same setting: then `O=C(CN1CCc2cn(-c3cncnc3)nc2C1)N1CCN(C2CCC2)CC1` [Compound 124, 6-[2-(4-cyclobutylpiperazin-1-yl)-2-oxoethyl]-2-pyrimidin-5-yl-4,5,6,7-tetrahydro-2H-pyrazolo[3,4-c]pyridine], with under 1000 nM. Still for that read-out and setting: next, `CC1CCC[C@H]2CN(C(=O)CN3CCc4nc(Cl)sc4C3)CCN12` (stereo in doubt) [Compound 147, 2-[(2-chloro-6,7-dihydro[1,3]thiazolo [5,4-c]pyridin-5(4H)-yl)acetyl]-6-methyloctahydro-2H-pyrido[1,2-a]pyrazine]: under 1000 nM; `O=C(CN1CCc2[nH]c(=O)ccc2C1)N1CCN(C2CCCC2)CC1` [Compound 133, 6-[2-(4-cyclopentylpiperazin-1-yl)-2-oxoethyl]-5,6,7,8-tetrahydro-1,6-naphthyridin-2(1H)-one]: under 1000 nM.

With `CC1CN(C(=O)CN2CCc3nc(-c4cncnc4)sc3C2)CCN1C1CCC1` (stereo not shown) [Compound 111, 5-[2-(4-cyclobutyl-3-methylpiperazin-1-yl)-2-oxoethyl]-2-pyrimidin-5-yl-4,5,6,7-tetrahydro[1,3] thiazolo [5,4-c]pyridine], the Ki was under 1000 nM. The same measure, in the same setting: next, `O=C(CN1CCc2cc(C(=O)N3CCCC3)ccc2C1)N1CCN(C2CCC2)CC1` [Compound 89, 2-[2-(4-cyclobutylpiperazin-1-yl)-2-oxoethyl]-6-(pyrrolidin-1-ylcarbonyl)-1,2,3,4-tetrahydroisoquinoline]: under 1000 nM.

Still in this assay, the particulars now being: Table II; assay of Example 7.
Take `N#Cc1ccc(-c2ncc3c(n2)CCN(CC(=O)N2CCN(C4CCC4)CC2)C3)cc1` [Compound 683, 4-{6-[2-(4-cyclobutylpiperazin-1-yl)-2-oxoethyl]-5,6,7,8-tetrahydropyrido[4,3-d]pyrimidin-2-yl]benzonitrile]: the Ki is under 1000 nM.

The assay is the same for the next values; noted with them: assay of Example 7; "*" in Ki of Table II.
`COc1cccc(-c2ccc3c(c2)CCN(CC(=O)N2CCN(C4CCC4)CC2)C3)c1` [Compound 475, 2-[2-(4-cyclobutylpiperazin-1-yl)-2-oxoethyl]-6-(3-methoxyphenyl)-1,2,3,4-tetrahydroisoquinoline]: the Ki was under 1000 nM. In the case of `O=C(CN1CCc2nc(-c3cccc4c3oc3ccccc34)sc2C1)N1CCN(C2CCC2)CC1` [Compound 342, 5-[2-(4-cyclobutylpiperazin-1-yl)-2-oxoethyl]-2-dibenzo[b,d]furan-4-yl-4,5,6,7-tetrahydro[1,3]thiazolo [5,4-c]pyridine], the Ki is under 1000 nM. Still for that read-out and setting: then `Cc1ccc(-c2nc3c(s2)CN(CC(=O)N2CCN(C4CCC4)CC2)CC3)cc1` [Compound 305, 5-[2-(4-cyclobutylpiperazin-1-yl)-2-oxoethyl]-2-(4-methylphenyl)-4,5,6,7-tetrahydro[1,3]thiazolo [5,4-c]pyridine], with under 1000 nM; and `CCc1cccc(-c2nc3c(s2)CN(CC(=O)N2CCN(C4CCC4)CC2)CC3)c1` [Compound 313, 5-[2-(4-cyclobutylpiperazin-1-yl)-2-oxoethyl]-2-(3-ethylphenyl)-4,5,6,7-tetrahydro[1,3]thiazolo [5,4-c]pyridine], with under 1000 nM.

As usually defined, the Ki is a dissociation constant, usually derived from enzyme kinetics or from competition with a known ligand.
